In brackets after ≈: the same amount, converted by molar mass. Several values for one entry are separate records, joined by “and”; a condition that tells them apart may be missing. Equal entries are not always repeated. Where two headings read alike, the source gives them in different places.
What was measured:
[1] = Distribution coefficient LogD7.4, shake flask method; assay type: physicochemical; settings: pH 7.4; Table 3
Method: Molecular properties (MW, clogP) were calculated with ChemDraw Professional v16.0.1.4(77). Distribution coefficients (LogD7.4) were measured using the shake flask method.
Representative assay protocols have been described in detail.^1,^2

[2] = biological target: T1, Notum (core, 81–451C330S) (Homo sapiens, UniProt Q6P988, C330S); assay: Notum-OPTS biochemical assay, Notum (81–451C330S)
T1 construct: high-throughput biochemical assay with Notum (81–451C330S) and OPTS as a synthetic fluorescent substrate; made in house
T1 sequence (Q6P988 81-451 C330S): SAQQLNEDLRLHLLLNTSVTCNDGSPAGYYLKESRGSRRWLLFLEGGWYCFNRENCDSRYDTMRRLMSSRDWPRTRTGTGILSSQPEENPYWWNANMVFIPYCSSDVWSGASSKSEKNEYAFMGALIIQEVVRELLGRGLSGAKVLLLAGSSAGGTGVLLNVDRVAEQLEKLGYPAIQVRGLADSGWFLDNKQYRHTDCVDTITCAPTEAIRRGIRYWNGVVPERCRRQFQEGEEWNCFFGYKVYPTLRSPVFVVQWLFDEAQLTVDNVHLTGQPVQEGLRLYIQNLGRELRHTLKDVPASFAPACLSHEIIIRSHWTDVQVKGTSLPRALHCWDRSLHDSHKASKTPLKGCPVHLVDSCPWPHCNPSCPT
Method: Notum inhibitors 3–5 (Table 1, Table 2, Table 3, Table 4) were either purchased or prepared using established synthetic methods from readily available starting materials (Scheme 1). Where necessary, the synthesis of many of these amines (e.g. 6) have been reported previously and full details of their preparation have been included in the Experimental Section. Notum inhibition activity was determined using the standard Notum-OPTS biochemical assay using IC50 values. These values were used to compare relative activities with covalent inhibitors under carefully regulated assay conditions. […] Selected inhibitors were screened for inhibition of Notum activity in a TCF/LEF Reporter (Luciferase) cell line with exogenous WNT3a and Notum, and soaked into Notum crystals to determine their binding modes and evidence of MoA.
(§1) Methods have been described in detail.

[3] = Aqueous solubility in PBS (pH 7.4); assay type: physicochemical
Method: (§2) Selected compounds were routinely screened for aqueous solubility in PBS (pH 7.4), transit performance in MDCK-MDR1 cell lines for permeability, and metabolic stability in MLM and HLM as a measure of clearance. The main metabolites and routes of metabolism of 4y were determined in MLM. Assay protocols and additional data are presented in the Supplementary Material (Tables S1–S7). ADME studies reported in this work were performed by WuXi AppTec (Shanghai, China).
(§3) Representative assay protocols have been described in detail. ^1,2

[4] = Stability in mouse liver microsomes; assay type: in vitro ADME
Method: as §2, §3

[5] = Stability in mouse plasma; assay type: in vitro ADME
Description: as §3

[6] = test system: MDR1-MDCKII cell monolayer; assay: Permeability using MDR1-MDCKII cell monolayer; assay type: in vitro ADME; settings: Table 3; efflux ratio
Method: as §2, §3

[7] = Permeability using MDR1-MDCKII cell monolayer; assay type: in vitro ADME; settings: dog, MDCK-MDR1, Table S3, mean n=2
Method: as §2, §3

[8] = test system: MDR1; assay: Permeability using MDR1-MDCKII cell monolayer; assay type: in vitro ADME; settings: dog
Method: as §2, §3

[9] = Stability in human liver microsomes; assay type: in vitro ADME
Method: as §2, §3

[10] = biological target: T2, Notum (Homo sapiens, UniProt Q6P988); assay: TCF/LEF Reporter (Luciferase) cell line with exogenous WNT3a and Notum; assay type: cell-based
T2 construct: host or cells: TCF/LEF Reporter (Luciferase) cell line; Notum added exogenously
T2 sequence (Q6P988 20-496): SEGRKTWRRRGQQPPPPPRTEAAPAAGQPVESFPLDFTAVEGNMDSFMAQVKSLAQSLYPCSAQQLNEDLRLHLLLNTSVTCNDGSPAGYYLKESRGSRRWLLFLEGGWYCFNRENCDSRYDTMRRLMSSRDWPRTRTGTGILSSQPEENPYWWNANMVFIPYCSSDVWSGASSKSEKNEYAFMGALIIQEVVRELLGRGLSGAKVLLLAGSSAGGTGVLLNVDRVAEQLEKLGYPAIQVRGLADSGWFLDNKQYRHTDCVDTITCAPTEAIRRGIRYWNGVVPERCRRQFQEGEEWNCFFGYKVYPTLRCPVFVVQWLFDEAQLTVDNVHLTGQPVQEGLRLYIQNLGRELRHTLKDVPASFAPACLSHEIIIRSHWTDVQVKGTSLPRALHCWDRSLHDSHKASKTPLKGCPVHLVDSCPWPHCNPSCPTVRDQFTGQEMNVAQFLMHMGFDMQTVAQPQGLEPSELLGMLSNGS
Method: Notum inhibitors 3–5 (Table 1, Table 2, Table 3, Table 4) were either purchased or prepared using established synthetic methods from readily available starting materials (Scheme 1). Where necessary, the synthesis of many of these amines (e.g. 6) have been reported previously and full details of their preparation have been included in the Experimental Section. Notum inhibition activity was determined using the standard Notum-OPTS biochemical assay using IC50 values. These values were used to compare relative activities with covalent inhibitors under carefully regulated assay conditions. Confirmed inhibitors were routinely screened in in vitro ADME assays. Selected inhibitors were screened for inhibition of Notum activity in a TCF/LEF Reporter (Luciferase) cell line with exogenous WNT3a and Notum, and soaked into Notum crystals to determine their binding modes and evidence of MoA. […]
as §1

[11] = test system: TCF/LEF Reporter (Luciferase) cell line; assay: TCF/LEF reporter (Luciferase) assay with WNT3A in the absence of Notum; assay type: cell-based; settings: up to 10 μM
Method: (§4) Early leads 4v, 4w and 4y were then evaluated in additional pharmacology and ADME screens (Table 3). […] Screening 4w and 4y in the biochemical assay using full length Notum and OPTS confirmed potent inhibition of Notum activity.
Figure S4D. Notum TCF/LEF reporter (Luciferase) data with WNT3A (200 ng/mL) in the absence of Notum. Representative response-concentration curves are for 4w (2 of 6 shown) from a larger data set for compounds 3-5. Examples are from different screening runs.

[12] = biological target: T3, Notum (full length) (Homo sapiens, UniProt Q6P988); assay: Notum-OPTS biochemical assay, full length Notum
T3 construct: Screening 4w and 4y in the biochemical assay using full length Notum and OPTS
T3 sequence (Q6P988 20-496): T2 sequence (Q6P988 20-496)
Method: as §4, §1

Which logD [1] does the source give for CC(=O)N1CCc2c1ccc(Cl)c2Cl [Compound 4w, 1-(4,5-Dichloroindolin-1-yl)ethan-1-one] here?
The logD was 3.1.

And the IC50 ([2]; Figure S4A, Notum (81-451 C330S) OPTS, 4 of 11 curves shown, read-out: IC50, single concentration-response curve)?
Its IC50 is 2.8 nM and 3.7 nM and 2.3 nM and 3.1 nM.

What about the IC50 ([2]; Notum (core, 81–451C330S), read-out: OPTS, IC50) of the same compound?
The IC50 was 2.5 ± 0.6 nM.

What about the IC50 ([2]; Table 2, mean ± s.d. of n = 4–12, >10 = 20–50% inhibition @ 10 μM, read-out: Notum IC50) of the same compound?
Its IC50 is 2.5 ± 0.6 nM.

What about the LE ([2]; ligand efficiency from Notum OPTS IC50) of the same compound?
Its LE is 0.85.

What about the LLE ([2]; lipophilic ligand efficiency from Notum OPTS IC50 and clogP) of the same compound?
Its LLE is 5.9.

And the solubility thermodynamic ([3]; PBS, Table S2, pH 7.4, n = 2, * below lower limit of quantification, read-out: Thermodynamic Solubility @ RT)?
Its solubility thermodynamic is < 0.36 µg/mL.

What about the solubility ([3]; Table 3, PBS pH 7.4) of the same compound?
The solubility was 0.4 µg/mL (≈ 1.74 µM).

What about the “MLM Stability Cli” value [4] of the same compound?
Its value is 1150 µL/min/mg protein.

And the microsomal CLint at 1 h ([4]; Table 3, read-out: MLM Clint)?
The microsomal CLint at 1 h was 1200 µL/min/mg.

And the half-life ([4]; mouse, read-out: MLM Stability t1/2)?
Its half-life is 1.2 min.

What about the half-life ([5]; Table S5, read-out: Mouse plasma Stability t1/2) of the same compound?
The half-life was > 280 min.

What about the half-life ([5]; read-out: mouse plasma stability t½) of the same compound?
The half-life was > 240 min.

And the “MDCK-MDR1 ER” value [6]?
The value was 0.60.

And the recovery ([7]; read-out: A to B % Recovery)?
The recovery was 75%.

And the recovery ([7]; read-out: B to A % Recovery)?
Its recovery is 81%.

And the Papp ([8]; MDCK-MDR1, Table 3, apical to basal, read-out: MDCK-MDR1 AB Papp)?
Its Papp is 35 ×10⁻⁶ cm/s.

And the Papp ([8]; MDCK-MDR1, Table 3, basal to apical, read-out: MDCK-MDR1 BA Papp)?
Its Papp is 21 ×10⁻⁶ cm/s.

What about the efflux ratio ([8]; MDCK-MDR1, Table S3, mean n=2) of the same compound?
Its efflux ratio is 0.59.

What about the Papp ([8]; MDCK-MDR1, Table S3, mean n=2, read-out: Apical to Basal Papp) of the same compound?
The Papp was 35.5 ×10⁻⁶ cm/s.

And the Papp ([8]; MDCK-MDR1, Table S3, mean n=2, read-out: Basal to Apical Papp)?
The Papp was 21.1 ×10⁻⁶ cm/s.

And the “HLM Stability Cli” value [9]?
Its value is 138 µL/min/mg protein.

And the microsomal CLint at 1 h ([9]; Table 3, read-out: HLM Clint)?
The microsomal CLint at 1 h was 140 µL/min/mg.

What about the half-life ([9]; human, read-out: HLM Stability t1/2) of the same compound?
The half-life was 10 min.

What about the EC50 ([10]; Figure S4C, WNT3A (200 ng/mL), 6 of 6 curves shown, read-out: EC50, single concentration-response curve) of the same compound?
Its EC50 is 5.5 nM and 4.3 nM and 15.2 nM and 39 nM and 29.1 nM and 36.8 nM.

What about the EC50 ([10]; Notum (core, 81–451C330S), restoration of Wnt signalling, read-out: TCF-LEF, EC50) of the same compound?
Its EC50 is 22 ± 14 nM.

And the “restoration of Wnt signalling in the presence of Notum” value ([10]; concentration-response curves up to 10 μM)?
The value was “restored Wnt signalling”.

What about the “assay interference or cell toxicity in the absence of Notum” value [11] of the same compound?
Its value is “not by assay interference or cell toxicity”.

And the IC50 ([12]; Figure S4B, Notum (full length) OPTS, 3 of 3 curves shown, read-out: IC50, single concentration-response curve)?
The IC50 was 5.3 nM and 4.1 nM and 5.4 nM.

And the IC50 ([12]; Notum (full length), read-out: OPTS, IC50)?
Its IC50 is 4.9 ± 0.6 nM.
